Assay in all cases: ≥ marks a high value that may be exact or a test limit, other limits are often not marked, values filed in µg/mL are converted to µM
Assay [1] deals with Micrococcus luteus ATCC 49732.
The test system of assay [2] is Staphylococcus aureus ATCC 12600.
Assay [3] has as its system Candida albicans ATCC 14053.
Assay [4] concerns Escherichia coli ATCC 11775.
Assay [5] deals with Pseudomonas aeruginosa ATCC 27853.
For assay [6], the system named is Klebsiella pneumoniae KCTC 2208.
The test system of assay [7] is Acinetobacter baumannii KCTC 2508.
Assay [8] relates to Escherichia coli ATCC 25922.
For assay [9], the system named is Candida albicans ATCC 10231.
Assay [10] has as its system Staphylococcus epidermidis KCTC 1917.
The subject of assay [11] is Enterococcus faecalis ATCC 29212.
For assay [12], the system named is Pseudomonas aeruginosa ATCC 15422.
Assay [13] relates to Klebsiella pneumoniae ATCC 700603.
For assay [14], the system named is Escherichia coli MG1655.
Assay [15] has as its system Staphylococcus aureus ATCC 25923.
Assay [16] relates to Pseudomonas aeruginosa ATCC 10145.
Assay [17] relates to Pseudomonas aeruginosa ATCC 47085.
Assay [18] concerns Candida albicans ATCC 24433.
Assay [19] concerns Candida parapsilosis ATCC 22019.
The subject of assay [20] is Escherichia coli.
Assay [21] relates to Trichophyton rubrum ATCC 28189.
Assay [22] concerns Staphylococcus aureus.
The subject of assay [23] is Escherichia coli SBS 363.
The subject of assay [24] is Micrococcus luteus A270.
Assay [25] concerns Candida albicans MDM8.

Each structure is given as a SMILES string. ≈ marks a conversion by molar mass, not a printed value. Where “and” joins values, the source holds several entries; their conditions need not be identical. Equal entries are not always repeated.

As a reminder, the MIC is the least concentration at which growth counts as inhibited. For `CC(C)C[C@H](NC(=O)[C@H](CO)NC(=O)[C@@H](NC(=O)[C@@H](N)CCC(=O)O)C(C)C)C(=O)N[C@@H](CC(N)=O)C(=O)N[C@@H](CO)C(=O)NCC(=O)N[C@@H](Cc1ccc(O)cc1)C(=O)N[C@@H](Cc1ccc(O)cc1)C(=O)O` [EVSLNSGYY], the MIC in assay [1] was ≥ 97 µM; in assay [2], ≥ 97 µM; in assay [3] it was ≥ 291 µM; in assay [4], ≥ 97 µM.

Take `CC[C@H](C)[C@H](N)C(=O)N[C@@H](C)C(=O)N[C@@H](CCCN=C(N)N)C(=O)N[C@@H](CCCN=C(N)N)C(=O)N[C@@H](C)C(=O)N[C@@H](CC(C)C)C(=O)N[C@@H](CCCCN)C(=O)N[C@@H](CCCCN)C(=O)N[C@@H](C)C(=O)N[C@@H](CCCCN)C(=O)N[C@@H](CCCN=C(N)N)C(=O)N[C@@H](C)C(=O)N[C@@H](C)C(=O)N[C@@H](Cc1cnc[nH]1)C(=O)N[C@H](C(=O)N[C@H](C(=O)N1CCC[C@H]1C(=O)N[C@@H](CCC(N)=O)C(=O)N[C@@H](CS)C(=O)N[C@@H](CCCCN)C(=O)N[C@@H](CCCCN)C(=O)N[C@@H](Cc1ccccc1)C(=O)NCC(=O)N[C@@H](CCCN=C(N)N)C(=O)N[C@@H](CCCN=C(N)N)C(N)=O)[C@@H](C)CC)[C@@H](C)O` [IARRALKKAKRAAHTIPQCKKFGRR]: the MIC in [5] worked out at 2 µM (≈ 5.81 µg/mL); in [6] it was 4 µM (≈ 11.6 µg/mL); in [7], 4 µM (≈ 11.6 µg/mL).

Turning to `CC[C@H](C)[C@H](N)C(=O)N[C@@H](C)C(=O)N[C@@H](CCCN=C(N)N)C(=O)N[C@@H](CCCN=C(N)N)C(=O)N[C@@H](C)C(=O)N[C@@H](CC(C)C)C(=O)N[C@@H](CCCCN)C(=O)N[C@@H](CCCCN)C(=O)N[C@@H](CO)C(=O)N[C@@H](CC(C)C)C(=O)N[C@@H](CCCN=C(N)N)C(=O)N[C@@H](C)C(=O)N[C@@H](CCCN=C(N)N)C(=O)N[C@@H](Cc1cnc[nH]1)C(=O)N[C@H](C(=O)N[C@H](C(=O)N1CCC[C@H]1C(=O)N[C@@H](CCC(N)=O)C(=O)N[C@@H](CS)C(=O)N[C@@H](CCCCN)C(=O)N[C@@H](CCCCN)C(=O)N[C@@H](Cc1ccccc1)C(=O)NCC(=O)N[C@@H](CCCN=C(N)N)C(=O)N[C@@H](CCCN=C(N)N)C(N)=O)[C@@H](C)CC)[C@@H](C)O` [IARRALKKSLRARHTIPQCKKFGRR], the MIC was found to be 8 µM (≈ 23.9 µg/mL) in assay [5], 4 µM (≈ 12 µg/mL) in [6] and 4 µM (≈ 12 µg/mL) in [7].

On to `CC[C@H](C)[C@H](N)C(=O)N[C@@H](C)C(=O)N[C@@H](CCCN=C(N)N)C(=O)N[C@@H](CCCN=C(N)N)C(=O)N[C@@H](CC(N)=O)C(=O)N[C@@H](CC(C)C)C(=O)N[C@@H](CS)C(=O)N[C@@H](C)C(=O)N[C@@H](CO)C(=O)N[C@@H](CC(C)C)C(=O)N[C@@H](CCCN=C(N)N)C(=O)N[C@@H](C)C(=O)N[C@@H](CCCN=C(N)N)C(=O)N[C@@H](Cc1cnc[nH]1)C(=O)N[C@H](C(=O)N[C@H](C(=O)N1CCC[C@H]1C(=O)N[C@@H](CCC(N)=O)C(=O)N[C@@H](CS)C(=O)N[C@@H](CCCCN)C(=O)N[C@@H](CCCCN)C(=O)N[C@@H](Cc1ccccc1)C(=O)NCC(=O)N[C@@H](CCCN=C(N)N)C(=O)N[C@@H](CCCN=C(N)N)C(N)=O)[C@@H](C)CC)[C@@H](C)O` [IARRNLCASLRARHTIPQCKKFGRR], for which the MIC in assay [5] was 8 µM (≈ 23.6 µg/mL); in [6], 8 µM (≈ 23.6 µg/mL); in assay [7], 16 µM (≈ 47.2 µg/mL).

As for `CC(C)C[C@H](NC(=O)CNC(=O)[C@H](Cc1ccc(O)cc1)NC(=O)[C@H](C)NC(=O)[C@@H]1CCCN1C(=O)[C@H](CC(C)C)NC(=O)[C@H](CCC(=O)O)NC(=O)[C@H](Cc1ccccc1)NC(=O)[C@H](Cc1cnc[nH]1)NC(=O)[C@H](CO)NC(=O)[C@@H](N)CCCCN)C(=O)O` [KSHFELPAYGL], the MIC in [8] is > 500 µM; in assay [9], > 500 µM; in [10], ≥ 267 µM; in [11], 422 µM and 405 µM and 252 µM; in assay [12] it was ≥ 500 µM.

For the compound `CC(C)C[C@H](NC(=O)[C@H](Cc1c[nH]c2ccccc12)NC(=O)[C@H](Cc1cnc[nH]1)NC(=O)[C@H](CCCCN)NC(=O)[C@H](CC(C)C)NC(=O)[C@H](C)NC(=O)[C@H](CC(C)C)NC(=O)[C@H](CCCCN)NC(=O)CNC(=O)[C@@H](NC(=O)[C@@H](NC(=O)[C@@H](N)CCCCN)[C@@H](C)O)C(C)C)C(=O)O` [KTVGKLALKHWL], the MIC is > 15 µM in assay [13], 15 µM (≈ 20.9 µg/mL) in [14], > 15 µM in assay [15] and 15 µM (≈ 20.9 µg/mL) in [16].

In the case of `CC(C)[C@H](NC(=O)[C@H](C)NC(=O)[C@@H](NC(=O)CNC(=O)[C@@H]1CCCN1)[C@@H](C)O)C(=O)N[C@@H](Cc1ccccc1)C(=O)N[C@@H](CCCCN)C(=O)O` [PGTAVFK], the MIC in assay [1] is 31 µM (≈ 22.3 µg/mL); in assay [2], 31 µM (≈ 22.3 µg/mL); in assay [3], ≥ 201 µM; in [4], 31 µM (≈ 22.3 µg/mL).

On to `CC[C@H](C)[C@H](NC(=O)[C@H](CCCN=C(N)N)NC(=O)[C@H](CCC(N)=O)NC(=O)[C@@H](NC(=O)[C@@H](NC(=O)[C@@H](N)CCCN=C(N)N)[C@@H](C)CC)C(C)C)C(=O)N[C@@H](C)C(=O)N[C@@H](CCCCN)C(=O)N[C@@H](Cc1c[nH]c2ccccc12)C(=O)N[C@@H](C)C(=O)N[C@@H](CCCCN)C(=O)N[C@@H](CCCCN)C(=O)N[C@@H](Cc1c[nH]c2ccccc12)C(=O)N[C@@H](Cc1ccc(O)cc1)C(=O)N[C@@H](CCCCN)C(=O)N[C@@H](C)C(=O)NCC(=O)N[C@@H](CCCCN)C(N)=O` [RIVQRIAKWAKKWYKAGK], for which the MIC was ≥ 55 µM in assay [17] and 13.7 µM (≈ 30.5 µg/mL) in assay [15].

With `CC[C@H](C)[C@H](NC(=O)[C@H](CCCN=C(N)N)NC(=O)[C@H](CCC(N)=O)NC(=O)[C@@H](NC(=O)[C@@H](NC(=O)[C@@H](N)CCCN=C(N)N)[C@@H](C)CC)C(C)C)C(=O)N[C@@H](CC(C)C)C(=O)N[C@@H](CCCCN)C(=O)N[C@@H](Cc1c[nH]c2ccccc12)C(=O)N[C@@H](CC(C)C)C(=O)N[C@@H](CCCCN)C(=O)N[C@@H](CCCCN)C(=O)N[C@@H](Cc1c[nH]c2ccccc12)C(=O)N[C@@H](Cc1ccc(O)cc1)C(=O)N[C@@H](CCCCN)C(=O)N[C@@H](CC(C)C)C(=O)NCC(=O)N[C@@H](CCCCN)C(N)=O` [RIVQRILKWLKKWYKLGK], the MIC in assay [17] was 27 µM (≈ 63.6 µg/mL); in assay [15], 13.6 µM (≈ 32 µg/mL).

For the compound `CC[C@H](C)[C@H](NC(=O)[C@H](CC(C)C)NC(=O)[C@H](CO)NC(=O)[C@@H](N)CCCN=C(N)N)C(=O)N[C@H](C(=O)N[C@@H](Cc1cnc[nH]1)C(=O)N[C@@H](CCC(N)=O)C(=O)N[C@@H](CCCN=C(N)N)C(=O)N[C@@H](CC(C)C)C(=O)N[C@@H](Cc1ccccc1)C(N)=O)C(C)C` [RSLIVHQRLF], the MIC in assay [18] is ≥ 315 µM; in assay [19], ≥ 315 µM; in assay [20], > 315 µM; in assay [21] it was ≥ 315 µM; in [22], > 315 µM.

As for `CC[C@H](C)[C@H](NC(=O)[C@H](CC(C)C)NC(=O)[C@H](CCCCN)NC(=O)[C@H](CCCN=C(N)N)NC(=O)[C@H](Cc1ccccc1)NC(=O)[C@H](CC(C)C)NC(=O)[C@H](CO)NC(=O)[C@H](CC(C)C)NC(=O)[C@H](CC(C)C)NC(=O)[C@@H](N)CO)C(=O)N[C@H](C(N)=O)[C@@H](C)O` [SLLSLFRKLIT], the figures for the MIC in [23], in [24] and in assay [25] were 12.5 µM (≈ 16.1 µg/mL), 1.56 µM (≈ 2.01 µg/mL) and 1.56 µM (≈ 2.01 µg/mL), respectively.

In the case of `CC[C@H](C)[C@H](NC(=O)[C@H](CC(C)C)NC(=O)[C@H](C)NC(=O)[C@H](CO)NC(=O)[C@H](CCCN=C(N)N)NC(=O)[C@@H](N)CO)C(=O)N[C@H](C(=O)N[C@@H](Cc1cnc[nH]1)C(=O)N[C@@H](CCC(N)=O)C(=O)N[C@@H](CCCN=C(N)N)C(=O)N[C@@H](CC(C)C)C(=O)N[C@@H](Cc1ccccc1)C(N)=O)C(C)C` [SRSALIVHQRLF], the MIC was ≥ 280 µM in assay [18]; ≥ 280 µM in assay [19]; > 280 µM in assay [20]; ≥ 280 µM in assay [21]; > 280 µM in assay [22].

For the origin of these results see DBAASP.
